Where two headings read alike, the source gives them in different places.
What was measured:
NMDA receptor [1] = experiment: Patch clamp: NMDA-induced inward currents in cultured hippocampal neurones; type: cell-based, rat
Description: Hippocampi were obtained from rat embryos (E20 to E21) and were then transferred to calcium and magnesium free Hank's buffered salt solution (Gibco) on ice. Cells were mechanically dissociated in 0.05% DNAase/0.3% ovomucoid (Sigma) following an 8 minute pre-incubation with 0.66% trypsin/0.1% DNAase (Sigma). The dissociated cells were then centrifuged at 18 ×g for 10 minutes, re-suspended in minimum essential medium (Gibco) and plated at a density of 150,000 cells cm^-2 onto poly-L-lysine (Sigma)-precoated plastic petri dishes (Falcon). The cells were nourished with NaHCO3 /HEPES-buffered minimum essential medium supplemented with 5% fetal calf serum and 5% horse serum (Gibco) and incubated at 37° C. with 5% CO2 at 95% humidity. […] Thereafter the medium was exchanged partially twice weekly.
Patch clamp recordings were made from these neurones with polished glass electrodes (4-6 m.OMEGA.) in the whole cell mode at room temperature (20-22° C.) with the aid of an EPC-7 amplifier (List). Test substances were applied by switching channels of a custom-made fast superfusion system with a common outflow (10-20 ms exchange times). The contents of the intracellular solution were as follows (mM): CsCl (120), TEACl (20), EGTA (10), MgCl2 (1), CaCl2 -(0.2), glucose (10), ATP(2), cAMP (0.25); pH was adjusted to 7.3 with CsOH or HC1. The extracellular solutions had the following basic composition (mM): NaCl (140), KCl (3), CaCl2 (0.2), glucose (10), HEPES (10), sucrose (4.5), tetrodotoxin (TTX 3*10^-4). Glycine (1 μM) was present in all solutions: a concentration sufficient to cause around 80-85% activation of glycineB receptors. Only results from stable cells were accepted for inclusion in the final analysis, i.e., following recovery of responses to NMDA by at least 75% of their depression by the antagonists tested.
(§1) IC50 s in patch clamp, excitotoxicity, and binding studies were calculated according to the four parameter logistic equation using the Grafit computer program (Erithacus Software, England). Ki value for binding studies were then determined according to Cheng and Prusoff. Binding values presented are means±SEM of 3-5 determinations (each performed in duplicate). […] Pearson product moment correlation analysis (Sigma Stat, Jandel Scientific) was used to compare in vitro potencies and in vivo anticonvulsant activity.

[2] = Description: All animals were kept with water and food ad libitum under a 12 hour light-dark cycle (light on at 6 a.m.) and at a controlled temperature (20±0.5° C.). All e experiments were performed between 10 a.m. and 5 p.m. Tested agents were injected 30 min. i.p. before the induction of convulsions if not stated otherwise (see below). All compounds were dissolved in 0.9% saline.
NMDA receptor [3] = experiment: [3H]-(+)-MK-801 binding to rat cortical membranes; conditions: for Ki: read-out: MK-801 Ki, Table 9, Cheng-Prusoff with Kd for MK-801 of […]; for IC50: read-out: [3H] MK-801 IC50, Table 7, footnote calls the values Ki
Description: Male Sprague-Dawley rats (200-250 g) were decapitated and their brains were removed rapidly. The cortex was dissected and homogenized in 20 volumes of ice-cold 0.32 M sucrose using a glass-Teflon homogenizer. The homogenate was centrifuged at 1000 ×g for 10 minutes. The pellet was discarded and the supernatant centrifuged at 20,000 ×g for 20 minutes. The resulting pellet was re-suspended in 20 volumes of distilled water and centrifuged for 20 minutes at 8000 ×g. Then the supernatant and the buffy coat were centrifuged three times (48,000 ×g for 20 minutes) in the presence of 50 mM Tris-HCl, pH 8.0. All centrifugation steps were carried out at 4° C. After resuspension in 5 volumes of 50 mM Tris-HCl, pH 8.0 the membrane suspension was frozen rapidly at -80° C. On the day of assay the membranes were thawed and washed four times by resuspension in 50 mM Tris-HCl, pH 8.0 and centrifugation at 48,000 ×g for 20 minutes. The final pellet was suspended in assay buffer. The amount of protein in the final membrane preparation was determined according to the method of Lowry with some modifications. The final protein concentration used for our studies was between 250-500 μg/ml.
Membranes were re-suspended and incubated in 50 mM Tris-HCl, pH 8.0. […] Incubations were terminated using a Millipore filter system. The samples were rinsed three times with 2.5 ml ice cold assay buffer over glass fiber filters obtained from Schleicher & Schuell under a constant vacuum. Filtration was performed as rapidly as possible. Following separation and rinse, the filters were placed into scintillation liquid (5 ml; Ultima Gold) and radio activity retained on the filters was determined with a conventional liquid scintillation counter (Hewlett Packard, Liquid Scintillation Analyser).
as §1

[4] = Table 7; NMDA 200 μM with glycine 1 μM at -70 mV; read-out: Patch Clamp IC50
[5] = Table 9; NMDA-induced currents; read-out: Patch Clamp IC50

SMILES | IC50 (NMDA receptor [1]; [4]) | IC50 (NMDA receptor [1]; [5]) | Min Lethality ([2]; i.p., minimal lethal dose) | Ki (NMDA receptor [3]) | IC50 (NMDA receptor [3]) | Min Lethality ([2]; mouse, in vivo, ip) | IC50 (NMDA receptor [1]; read-out: Patch Clamp IC50; Table 7; NMDA 200 μM with glycine 1 μM at -70 mV) | IC50 (NMDA receptor [1]; read-out: Patch Clamp IC50; Table 9; NMDA-induced currents)
CC1CC(C)CC(C)(N)C1 (centres unmarked) [Mrz 2/616, 1-amino-1,3,5-trimethylcyclohexane] | 34.2 µM | 33.2 µM | > 50 mg/kg | 10.4 µM | 15 µM | – | – | –
CCCC1(C)CCCC(C)(N)C1 (centres unmarked) [Mrz 2/617] | 57.4 µM | 63.9 µM | – | 38 µM | 51.8 µM | > 50 mg/kg | – | –
CCC1(C)CCCC(C)(N)C1 (centres unmarked) [Mrz 2/620] | 99 µM | 99 µM | – | 25.5 µM | 32.2 µM | > 50 mg/kg | – | –
CC1(C)CCCC(C)(N)C1 (centres unmarked) [Mrz 2/621] | – | – | > 60 mg/kg | 32.2 µM | 36.7 µM | – | 92.4 µM | 92.4 µM
CCC1(CC)CC(C)(C)CC(C)(N)C1 (centres unmarked) [Mrz 2/623, 1-amino-1,5,5-trimethyl-3,3-diethylcyclohexane] | 3.7 µM | 3.7 µM | > 30 mg/kg | 3.16 µM | 3.3 µM | – | – | –
CCCC1(CCC)CC(C)(C)CC(C)(N)C1 (centres unmarked) [Mrz 2/626] | 9.6 µM | 9.6 µM | – | 16.5 µM | 11.6 µM | > 50 mg/kg | – | –
CCNC1(C)CC(C)(C)CC(C)(C)C1 [Mrz 2/639, N-ethyl-1-amino-1,3,3,5,5-pentamethylcyclohexane] | 7.4 µM | 7.4 µM | 30 mg/kg | 4.17 µM | 3.3 µM | – | – | –
CNC1(C)CC(C)(C)CC(C)(C)C1.Cl [Mrz 2/640, N,1,3,3,5,5-hexamethylcyclohexanamine hydrochloride] | 14.6 µM | 14.6 µM | 108 mg/kg | 4.83 µM | 3.7 µM | – | – | –
CC1(N)CCCCC1 [Mrz 2/641] | > 100 µM | > 100 µM | > 50 mg/kg | 143 µM | 184 µM | – | – | –
CC1(C)CC(CCN)CC(C)(C)C1 [Mrz 2/644] | 4.1 µM | 4.1 µM | – | 4.84 µM | 3.8 µM | > 35 mg/kg | – | –
